In the NIST ThermoML archive (doi:10.1016/j.jct.2013.09.039):

Experiment: xn = mol fraction of the nth substance listed
Conditions: Liquid, Vibrating tube method

CCOC(=O)OCC [diethyl carbonate] + Cc1ccc(C)cc1
mass density [kg/m3]
Conditions | 100 kPa | 5000 kPa | 10000 kPa | 20000 kPa | 30000 kPa | 40000 kPa
288.15 K, x1 = 0.1014 | 876.7 | 880.1 | 883.7 | 890.3 | 896.1 | 902.1
288.15 K, x1 = 0.1346 | 879.5 | 884.1 | 887.8 | 894.3 | 900.3 | 906.3
288.15 K, x1 = 0.1949 | 887.5 | 891.2 | 894.8 | 901.3 | 907.5 | 913.4
288.15 K, x1 = 0.2767 | 898.3 | 900.9 | 904.5 | 911.3 | 917.4 | 923.5
288.15 K, x1 = 0.386 | 909.2 | 913.4 | 917.2 | 924.1 | 930.4 | 936.6
288.15 K, x1 = 0.4858 | 920.7 | 924.7 | 928.5 | 935.5 | 941.9 | 948.3
288.15 K, x1 = 0.5444 | 928.4 | 931.5 | 935.3 | 942.5 | 949.1 | 955.4
288.15 K, x1 = 0.5923 | 933.9 | 937 | 941 | 948 | 954.7 | 961.2
288.15 K, x1 = 0.6718 | 942.3 | 946.4 | 950.3 | 957.5 | 964.3 | 970.9
288.15 K, x1 = 0.7676 | 953.2 | 957.4 | 961.3 | 968.7 | 975.6 | 982.3
288.15 K, x1 = 0.8313 | 960.6 | 964.8 | 968.9 | 976.4 | 983.3 | 990.1
288.15 K, x1 = 0.9044 | 968.7 | 973.1 | 977.2 | 984.7 | 991.9 | 998.6
298.15 K, x1 = 0.1014 | 867.6 | 871.9 | 875.1 | 882 | 888.2 | 894.3
298.15 K, x1 = 0.1346 | 871.5 | 875.8 | 879 | 885.9 | 892.3 | 898.4
298.15 K, x1 = 0.1949 | 878.1 | 882.4 | 885.8 | 892.7 | 899.3 | 905.3
298.15 K, x1 = 0.2767 | 887.5 | 892 | 895.4 | 902.5 | 909.1 | 915.3
298.15 K, x1 = 0.386 | 899.8 | 904.4 | 907.7 | 915 | 921.9 | 928.2
298.15 K, x1 = 0.4858 | 910.7 | 915.2 | 918.8 | 926.3 | 933.2 | 939.6
298.15 K, x1 = 0.5444 | 916.8 | 922 | 925.6 | 933.2 | 940.2 | 946.6
298.15 K, x1 = 0.5923 | 922.8 | 927.4 | 931.1 | 938.5 | 945.8 | 952.3
298.15 K, x1 = 0.6718 | 931.7 | 936.5 | 940.3 | 947.8 | 955.1 | 961.8
298.15 K, x1 = 0.7676 | 942.4 | 947.3 | 951 | 959 | 966.3 | 973.1
298.15 K, x1 = 0.8313 | 949.8 | 954.7 | 958.4 | 966.4 | 973.8 | 980.8
298.15 K, x1 = 0.9044 | 957.6 | 962.7 | 966.6 | 974.7 | 982.2 | 989.1
308.15 K, x1 = 0.1014 | 858.7 | 862.8 | 866.6 | 873.8 | 880.4 | 886.6
308.15 K, x1 = 0.1346 | 862.5 | 866.7 | 870.4 | 877.7 | 884.5 | 890.8
308.15 K, x1 = 0.1949 | 868.9 | 873 | 876.5 | 884.2 | 891.1 | 897.5
308.15 K, x1 = 0.2767 | 878.2 | 882.4 | 886.5 | 893.8 | 900.8 | 907.3
308.15 K, x1 = 0.386 | 890.1 | 894.5 | 898.5 | 906.2 | 913.3 | 919.9
308.15 K, x1 = 0.4858 | 900.7 | 905.2 | 909.2 | 917.2 | 924.5 | 931.2
308.15 K, x1 = 0.5444 | 907.2 | 911.7 | 916 | 923.9 | 931.3 | 938.1
308.15 K, x1 = 0.5923 | 912.6 | 916.9 | 921.4 | 929.4 | 936.8 | 943.7
308.15 K, x1 = 0.6718 | 921.3 | 925.7 | 930.3 | 938.4 | 945.9 | 952.9
308.15 K, x1 = 0.7676 | 931.8 | 936.5 | 940.9 | 949.2 | 957 | 964.1
308.15 K, x1 = 0.8313 | 939 | 943.6 | 948.1 | 956.6 | 964.2 | 971.6
308.15 K, x1 = 0.9044 | 946.7 | 951.5 | 956.2 | 964.5 | 972.6 | 979.9
